Consider 25 compounds from patent US9163012B2, “Carbamate and urea inhibitors of 11β-hydroxysteroid dehydrogenase 1” (Vitae Pharmaceuticals, Inc., priority 2009, dated 2015).

One may read the IC50 as the concentration at which inhibition is half-maximal.

In this test the target is 11β-HSD1 (Homo sapiens (Human), UniProt P28845). The test can be described thus: Biological Test Example 1: inhibition of a microsomal preparation of 11β-HSD1 (SPA). It counts as biochemical. Particulars: Biological Test Example 1; for Average % inhibition at 100 nM: 100 nM compound. Here is the method:
All reactions were carried out at rt in 96 well clear flexible PET Microbeta plates (PerkinElmer). […] After a 10 minute pre-incubation, 50 μL of enzyme solution containing microsomes isolated from CHO cells overexpressing human 11-HSD1 (10-20 μg/ml of total protein) was added, and the plates were incubated for 90 minutes at rt. The reaction was stopped by adding 50 μl of the SPA beads suspension containing 10 μM […], 5 mg/ml protein A coated YSi SPA beads (GE Healthcare) and 3.3 μg/ml of anti-cortisol antibody (East Coast Biologics) in Superblock buffer (Bio-Rad). The plates were shaken for 120 minutes at rt, and the SPA signal corresponding to [^3H]cortisol was measured on a Microbeta plate reader.

Where [1] appears, read: microsomes from CHO cells overexpressing human 11β-HSD1, read-out: IC50 Range.

Each structure is given as a SMILES string. Like-named read-outs stand apart in the source and are kept apart here.

Chain of 11β-HSD1 (P28845 whole entry): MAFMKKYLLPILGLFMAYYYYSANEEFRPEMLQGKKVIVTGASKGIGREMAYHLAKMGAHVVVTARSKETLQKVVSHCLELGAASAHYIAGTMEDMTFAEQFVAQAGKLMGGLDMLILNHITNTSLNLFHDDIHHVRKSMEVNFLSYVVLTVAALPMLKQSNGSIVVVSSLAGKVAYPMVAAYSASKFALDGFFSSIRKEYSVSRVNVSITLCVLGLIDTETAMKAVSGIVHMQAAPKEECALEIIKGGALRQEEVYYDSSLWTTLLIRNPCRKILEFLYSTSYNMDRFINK

Consider `NC(=O)[C@]12CC3CC(C1)[C@@H](OC(=O)N1CC[C@@H](Oc4ncc(F)cc4F)C1)C(C3)C2` (relative stereo) [EXAMPLE 1, (R)-(trans-(1-carbamoyl-4-adamantyl)) 3-(3,5-difluoropyridin-2-yloxy)pyrrolidine-1-carboxylate], for which the “Average % inhibition at 100 nM” value came out at 95.53%. Besides, under setting [1], the IC50 is less than 100 nM. Further, the IC50 (read-out: IC50) stood at 1.54 nM.

As for `O=C(OC1C2CC3CC1CC(O)(C3)C2)N1CCC(c2ncc(Cl)cn2)C1` (single isomer, unassigned) [EXAMPLE 24 Isomer 1, trans-1-hydroxy-4-adamantyl 3-(5-chloropyrimidin-2-yl)pyrrolidine-1-carboxylate], the “Average % inhibition at 100 nM” value worked out at 98.6%.

On to `O=C(OC1C2CC3CC1CC(O)(C3)C2)N1CCC(c2ncc(Cl)cn2)C1` (single isomer, unassigned) [EXAMPLE 24 Isomer 2, cis-1-hydroxy-4-adamantyl 3-(5-chloropyrimidin-2-yl)pyrrolidine-1-carboxylate], for which the “Average % inhibition at 100 nM” value came to 34.7%.

Take `NC(=O)[C@]12CC3CC(C1)[C@@H](OC(=O)N1CCC(c4ncc(Cl)cn4)C1)C(C3)C2` (single isomer, unassigned) [EXAMPLE 26 Isomer 1a, (1-carbamoyl-4-adamantyl) 3-(5-chloropyrimidin-2-yl)pyrrolidine-1-carboxylate]: the “Average % inhibition at 100 nM” value turned out to be 102.6%. Besides, the IC50 under setting [1] is less than 100 nM. Moreover, for the setting “read-out: IC50”, the IC50 was 1.15 nM.

With `NC(=O)[C@]12CC3CC(C1)[C@@H](OC(=O)N1CCC(c4ncc(Cl)cn4)C1)C(C3)C2` (single isomer, unassigned) [EXAMPLE 26 Isomer 1b, (1-carbamoyl-4-adamantyl) 3-(5-chloropyrimidin-2-yl)pyrrolidine-1-carboxylate], the “Average % inhibition at 100 nM” value stood at 84.2%. Also, under setting [1], the IC50 is less than 100 nM. For the same compound, the IC50 (read-out: IC50) was 1.91 nM.

Regarding `NC(=O)[C@]12CC3CC(C1)[C@@H](OC(=O)N1CCC(c4ncc(Cl)cn4)C1)C(C3)C2` (single isomer, unassigned) [EXAMPLE 26 Isomer 2, cis-(1-carbamoyl-4-adamantyl) 3-(5-chloropyrimidin-2-yl)pyrrolidine-1-carboxylate], the “Average % inhibition at 100 nM” value is reported as 26.3%. Further, under setting [1], the IC50 was greater than 100 nM. Where the note is “read-out: IC50”, the IC50 was greater than 100 nM.

Turning to `NC(=O)[C@]12CC3CC(C1)[C@@H](OC(=O)N1CCC(c4ncc(Cl)cn4)C1)C(C3)C2` (single isomer, unassigned) [EXAMPLE 26, trans-(1-carbamoyl-4-adamantyl) 3-(5-chloropyrimidin-2-yl)pyrrolidine-1-carboxylate], the “Average % inhibition at 100 nM” value amounted to 94.5%. Moreover, the IC50 under setting [1] was less than 100 nM. For the setting “read-out: IC50”, the IC50 is 1.12 nM.

As to `Cc1ccc(C2CCN(C(=O)OC3C4CC5CC3CC(C(N)=O)(C5)C4)C2)nc1` (single isomer, unassigned) [EXAMPLE 35 Isomer 1, trans-1-carbamoyl-4-adamantyl 3-(5-methylpyridin-2-yl)pyrrolidine-1-carboxylate], the “Average % inhibition at 100 nM” value came out at 91.6%. In addition, the IC50 under setting [1] was less than 100 nM. Moreover, the IC50 (read-out: IC50) worked out at 1.61 nM.

As to `Cc1ccc(C2CCN(C(=O)OC3C4CC5CC3CC(C(N)=O)(C5)C4)C2)nc1` (single isomer, unassigned) [EXAMPLE 35 Isomer 2, cis-1-carbamoyl-4-adamantyl 3-(5-methylpyridin-2-yl)pyrrolidine-1-carboxylate], the “Average % inhibition at 100 nM” value was 8.1%. Besides, the IC50 under setting [1] is greater than 100 nM. For the same compound, the IC50 (read-out: IC50) is greater than 100 nM.

`Cc1ncc(C2CCN(C(=O)OC3C4CC5CC3CC(C(N)=O)(C5)C4)C2)cn1` (single isomer, unassigned) [EXAMPLE 36 Isomer 1, 1-carbamoyl-4-adamantyl 3-(2-methylpyrimidin-5-yl)pyrrolidine-1-carboxylate]: the “Average % inhibition at 100 nM” value is 59.1%. In addition, the IC50 under setting [1] is less than 100 nM. Moreover, the IC50 (read-out: IC50) amounted to 83.7 nM.

For the compound `Cc1ncc(C2CCN(C(=O)OC3C4CC5CC3CC(C(N)=O)(C5)C4)C2)cn1` (single isomer, unassigned) [EXAMPLE 36 Isomer 2, 1-carbamoyl-4-adamantyl 3-(2-methylpyrimidin-5-yl)pyrrolidine-1-carboxylate], the “Average % inhibition at 100 nM” value is 1.5%. Also, under setting [1], the IC50 was greater than 100 nM. Further, the IC50 (read-out: IC50) is greater than 100 nM.

For `Cc1ccc(C2CCN(C(=O)OC3C4CC5CC3CC(C(N)=O)(C5)C4)C2)nn1` (single isomer, unassigned) [EXAMPLE 37 Isomer 1, trans-1-carbamoyl-4-adamantyl 3-(6-methylpyridazin-3-yl)pyrrolidine-1-carboxylate], the “Average % inhibition at 100 nM” value was 76.6%.

For the compound `Cc1ccc(C2CCN(C(=O)OC3C4CC5CC3CC(C(N)=O)(C5)C4)C2)nn1` (single isomer, unassigned) [EXAMPLE 37 Isomer 2], the “Average % inhibition at 100 nM” value was determined as 13.3%.

On to `Cc1ccnc(C2CCN(C(=O)OC3C4CC5CC3CC(C(N)=O)(C5)C4)C2)n1` (single isomer, unassigned) [EXAMPLE 38 Isomer 1, 1-carbamoyl-4-adamantyl 3-(4-methylpyrimidin-2-yl)pyrrolidine-1-carboxylate], for which the “Average % inhibition at 100 nM” value is reported as 93.1%. Moreover, the IC50 under setting [1] was less than 100 nM. The IC50 (read-out: IC50) was 3.34 nM.

`Cc1ccnc(C2CCN(C(=O)OC3C4CC5CC3CC(C(N)=O)(C5)C4)C2)n1` (single isomer, unassigned) [EXAMPLE 38 Isomer 2, 1-carbamoyl-4-adamantyl 3-(4-methylpyrimidin-2-yl)pyrrolidine-1-carboxylate]: the “Average % inhibition at 100 nM” value was determined as 10.7%. Besides, the IC50 under setting [1] was greater than 100 nM. Also, the IC50 (read-out: IC50) is greater than 100 nM.

For the compound `Cc1cnc(C2CCN(C(=O)OC3C4CC5CC3CC(C(N)=O)(C5)C4)C2)nc1` (single isomer, unassigned) [EXAMPLE 39 Isomer 1, 1-carbamoyl-4-adamantyl 3-(5-methylpyrimidin-2-yl)pyrrolidine-1-carboxylate], the “Average % inhibition at 100 nM” value is on record as 59.7%. Besides, the IC50 under setting [1] is less than 100 nM. Under “read-out: IC50”, the IC50 turned out to be 2.99 nM.

`Cc1cnc(C2CCN(C(=O)OC3C4CC5CC3CC(C(N)=O)(C5)C4)C2)nc1` (single isomer, unassigned) [EXAMPLE 39 Isomer 2, 1-carbamoyl-4-adamantyl 3-(5-methylpyrimidin-2-yl)pyrrolidine-1-carboxylate]: the “Average % inhibition at 100 nM” value stood at 1.8%. The concentration for half-maximal inhibition (IC50) under setting [1] is greater than 100 nM. Further, the IC50 (read-out: IC50) is greater than 100 nM.

As for `Cc1cc(C2CCN(C(=O)OC3C4CC5CC3CC(C(N)=O)(C5)C4)C2)nn1C` (single isomer, unassigned) [EXAMPLE 40 Isomer 1, 1-carbamoyl-4-adamantyl 3-(1,5-dimethyl-1H-pyrazol-3-yl)pyrrolidine-1-carboxylate], the “Average % inhibition at 100 nM” value is reported as 90.8%. Also, under setting [1], the half-inhibitory concentration (IC50) was less than 100 nM. Moreover, the IC50 (read-out: IC50) worked out at 6.88 nM.

Turning to `Cc1cc(C2CCN(C(=O)OC3C4CC5CC3CC(C(N)=O)(C5)C4)C2)nn1C` (single isomer, unassigned) [EXAMPLE 40 Isomer 2, 1-carbamoyl-4-adamantyl 3-(1,5-dimethyl-1H-pyrazol-3-yl)pyrrolidine-1-carboxylate], the “Average % inhibition at 100 nM” value came out at 5.2%. Also, the IC50 under setting [1] was greater than 100 nM. Where the note is “read-out: IC50”, the IC50 is greater than 100 nM.

In the case of `NC(=O)C12CC3CC(C1)C(OC(=O)N1CCC(c4ncc(F)cn4)C1)C(C3)C2` (single isomer, unassigned) [EXAMPLE 41 Isomer 1, 1-carbamoyl-4-adamantyl 3-(5-fluoropyrimidin-2-yl)pyrrolidine-1-carboxylate], the “Average % inhibition at 100 nM” value turned out to be 92.3%.

Consider `NC(=O)C12CC3CC(C1)C(OC(=O)N1CCC(c4ncc(F)cn4)C1)C(C3)C2` (single isomer, unassigned) [EXAMPLE 41 Isomer 2, 1-carbamoyl-4-adamantyl 3-(5-fluoropyrimidin-2-yl)pyrrolidine-1-carboxylate], for which the “Average % inhibition at 100 nM” value amounted to 69.0%.

As to `Cc1csc(C2CCN(C(=O)OC3C4CC5CC3CC(C(N)=O)(C5)C4)C2)n1` (single isomer, unassigned) [EXAMPLE 42 Isomer 1, transl-carbamoyl-4-adamantyl 3-(4-methylthiazol-2-yl)pyrrolidine-1-carboxylate], the “Average % inhibition at 100 nM” value is listed as 91.8%.

`Cc1csc(C2CCN(C(=O)OC3C4CC5CC3CC(C(N)=O)(C5)C4)C2)n1` (single isomer, unassigned) [EXAMPLE 42 Isomer 2, cis-1-carbamoyl-4-adamantyl 3-(4-methylthiazol-2-yl)pyrrolidine-1-carboxylate]: the “Average % inhibition at 100 nM” value is 21.8%.

As for `Cc1cc(C)nc(C2CCN(C(=O)OC3C4CC5CC3CC(C(N)=O)(C5)C4)C2)n1` (single isomer, unassigned) [EXAMPLE 43 Isomer 1, trans-1-carbamoyl-4-adamantyl 3-(4,6-dimethylpyrimidin-2-yl)pyrrolidine-1-carboxylate], the “Average % inhibition at 100 nM” value was 86.5%. The IC50 under setting [1] is less than 100 nM. Besides, under “read-out: IC50”, the IC50 turned out to be 5.72 nM.

Regarding `Cc1cc(C)nc(C2CCN(C(=O)OC3C4CC5CC3CC(C(N)=O)(C5)C4)C2)n1` (single isomer, unassigned) [EXAMPLE 43 Isomer 2, cis-1-carbamoyl-4-adamantyl 3-(4,6-dimethylpyrimidin-2-yl)pyrrolidine-1-carboxylate], the “Average % inhibition at 100 nM” value was −1.8%. Further, the IC50 under setting [1] was greater than 100 nM. In addition, the IC50 (read-out: IC50) was greater than 100 nM.
